From patent US11752125B2, “Anti-neuroinflammatory and protective compounds in Achillea fragrantissima” (THE STATE OF ISRAEL MINISTRY OF AGRICULTURE & RURAL …, priority 2013, dated 2023)

Key:
[1] = system: N2a neuronal cells; assay: Aβ25-35-induced ROS elevation in N2a cells; format: cell-based; conditions: Aβ25-35 25 μM, 20 hr
Experimental: 2. Plate N2a cells (10,000 cells/0.2 ml/well of 96 wells plate) in DMEM (high glucose, 225 ml), Opti-MEM (250 mil) containing 5% Fetal Bovine Serum, 2 mM L-Glutamine, 100 U/ml penicillin and 100 micrograms/mL streptomycin and incubate (37° C., 5% CO2) for 24 hr. 3. Replace the medium with a fresh one containing 20 micromolars 2′7′-dichlorofluorescein diacetate (DCF-DA); 4. Incubate 30 min (37° C., 5% CO2); 5. Wash twice with PBS; 6. Replace with fresh medium; 7. Read fluorescence of “time 0” at 485 nm (Extinction) and 528 nm (Emmision). 8. Incubate the cultured cells for 2 hours with freshly diluted TTF or AcA of the invention; 9. Add freshly diluted Aβ25-35 (25 micromolars); 10. Read fluorescence at 20 hr after the addition of Aβ25-35 (25 micromolars) (Ex: 485 nm and Em: 528 nm). 11. A reduction of 70% of ROS levels are indication for an anti-oxidant activity in this assay.
N2a neuronal cells were treated with Aβ25-35 (25 μM) and TTF. ROS levels were measured 20 hr later. The results are shown in FIG. 11 and are the mean±SEM of two different experiments (n=15).
N2a neuronal cells were treated with Aβ25-35 (25 μM) and achillolide A. Cytotoxicity (FIG. 27A) viability (FIG. 27B) and ROS levels (FIG. 27C) were measured 20 hr later. The results are the mean±SEM of two different experiments (n=16).

[2] = system: N2a neuronal cells; assay: Glutamate-induced ROS elevation in N2a cells; format: cell-based; conditions: glutamate 100 μM, 20 hr
Experimental: 1. Plate N2a cells (10,000 cells/0.2 ml/well of 96 wells plate) in DMEM (high glucose, 225 ml), Opti-MEM (250 ml) containing 1% Fetal Bovine Serum, 2 mM L-Glutamine, 100 U/ml penicillin and 100 micrograms/mL streptomycin and incubate (37° C., 5% CO2) for 24 hr. 2. Replace growth medium with a fresh one containing 20 micromolars 2′7′-dichlorofluorescein diacetate (DCF-DA); 3. Incubate 30 min (37° C., 5% CO2); 4. Wash twice with PBS; 5. Replace with fresh medium; 6. Read fluorescence of “time 0” at 485 nm (Extinction) and 528 nm (Emmision). 7. Incubate the cultured cells for 2 hours with freshly diluted TTF or AcA of the invention; 8. Add freshly diluted glutamate (100 micromolars); 9. Read fluorescence at 20 hr after the addition of glutamate (100 micromolars) (Ex: 485 nm and Em: 528 nm). 10. A reduction of 55% of ROS levels are indication for an anti-oxidant activity in this assay.
N2a neuronal cells were treated with glutamate (100 μM) and TTF. ROS levels were measured 20 hr later. The results are shown in FIG. 17 and are the mean±SEM of two different experiments (n=16).
N2a neuronal cells were treated with glutamate (100 μM) and achillolide A. ROS levels were measured 20 hr later. […]
Achillolide A was added to N2a cells before (−2 h, −1 h) concomitant (0) or after (1 h, 2 h) the addition of glutamate. ROS levels were measured 20 h later. […]

[3] = system: IL-1β; assay: IL-1β secretion from LPS-stimulated microglial cells (ELISA); format: cell-based, rat; conditions: LPS 100 ng/mL, 24 h
Experimental: Cultures of primary rat microglial cells were prepared from cerebral cortices of 1-2 day-old neonatal Wistar rats as described. Microglial cells were seeded at 24-well plastic plates at 1×10^5/well in RPMI-1640 containing 2% FBS, 2 mM glutamine, 100 U/mL penicillin, 100 µg/mL streptomycin, 1 mM sodium pyruvate, and 50 μM β-mercaptoethanol. Cells were cultured for 36 h before treatments. The research was conducted in accordance with the NIH guide for the care and use of laboratory animals, and was approved by the Institutional Animal Care and Use Committee of The Volcani Center, Agricultural Research Organization (IL-135/07, approval date Apr. 11, 2007). All efforts were made to minimize animal suffering, and to reduce the number of animals used.
For IL-1β measurements, 3.5×10^4 cells/well were plated on a 24-well tissue culture plate. After 24 h of incubation in DMEM containing 10% FBS, cells were stimulated with LPS (100 ng/mL) and treated with different concentrations of achillolide A. Conditioned media were collected twenty four hours later, and were tested with a rat IL1β ELISA kit (Novus Biologicals; CO, USA), according to the manufacturer's instructions.
2. Plate microglial cells (3.5×10^4 cells/well) on a 24-well tissue culture plate, in DMEM containing 10% FBS, 2 mM glutamine, 100 U/ml penicillin and 100 micrograms/mL streptomycin;
Microglial cells were treated with different concentrations of TTF, followed by stimulation with LPS (100 ng/mL). After 24 h, conditioned media were collected and tested for cytokine levels by ELISA. Cell viability was determined using the crystal violet assay (FIG. 9C). Values represent the means±SEM (n=4 for each treatment).
Microglial cells were treated with 20 μg/mL of achillolide A, followed by stimulation with LPS (4.5 ng/mL). After 5 h the levels of the indicated transcripts were measured by quantitative real-time PCR and the relative quantity (RQ) of the different transcripts were determined. […] The results are expressed as percentages relative to LPS-stimulated cells. […]

| Compound | effect on Aβ25-35-induced ROS elevation [1] | effect on glutamate-induced ROS elevation [2] | effect on LPS-elicited IL-1β secretion [3] | inhibition of IL-1β secretion [3] |
| --- | --- | --- | --- | --- |
| COc1cc(-c2oc3cc(OC)c(OC)c(O)c3c(=O)c2O)ccc1O [TTF, 3,5,4′-trihydroxy-6,7,3′-trimethoxyflavone] | prevents the elevation in ROS levels | prevents the elevation in ROS levels | markedly inhibited | – |
| C=C1CCC2=C(CO)C(=O)O[C@H]2/C=C(\C)[C@H](OC(C)=O)CC1=O [achillolide A] | prevents the elevation in ROS levels | prevents the elevation in ROS levels | – | 59% |
